Experimental data published in patent publication US20120015012A1, “COSMETIC COMPOSITION CONTAINING KETOGLUCONIC ACID DERIVATIVES” (SOLIANCE, priority 2009, published 2012).
Counter-ions that a name gives are not always drawn. Marks after values point to notes of the source that are not given here.

Legend:
[1] = system: normal adult human dermal fibroblasts; experiment: Neosynthesis of elastin in normal adult human dermal fibroblasts cultured in monolayers (spectrocolorimetric method on culture media); format: cell-based; settings: incubation 96 hours; for increase in the neosynthesis of elastin: versus control
Procedure: Confluent monolayers of normal human dermal fibroblasts were obtained by culturing cells obtained from abdominoplasty performed on a person. The fibroblasts are isolated by enzymatic digestion using Dispase and collagenase and then cultivated in DMEM (Dulbecco's Modified Eagle's Medium) and Ham's F12 medium in (1:1) ratio containing 10% of fetal calf serum, antibiotics and amphotericin B.
The reference activator used is ascorbic acid at a concentration of 100 μg/ml.
The fibroblasts were incubated for 96 hours at 37° C., under humid atmosphere and 5% CO2, in the absence (culture medium only) or in the presence of the reference product, or of increasing concentrations of test products (10; 100 and 1000 μg/ml) for both products. The test products were dissolved directly in the culture medium.
At the end of the incubation time, the elastin contained in the culture media was quantified by a spectrocolorimetric method.
At the end of the incubation time, the proteins contained in the cellular lysates were quantified by Bradford's spectrocolorimetric method.
The results are given in the form of ng of elastin per μg of total proteins of the cell lawn (mean±standard deviation, SD). The statistical significance of the differences observed between the “Control” and “Reference Product” conditions was evaluated by a Student test (Student t-test). The statistical significance of the differences observed between the “Control” and “Test Products” conditions was evaluated product by product, by a one-way analysis of variance (One Way ANOVA or One Way Anova on Ranks+), followed, when necessary, by a Holm-Sidak or Dunn's test (*: p<0.05).

[2] = system: normal adult human dermal fibroblasts; experiment: Neosynthesis of hyaluronic acid in normal adult human dermal fibroblasts cultured in monolayers (ELISA on culture media); format: cell-based; settings: incubation 24 hours
Procedure: Confluent monolayers of normal human dermal fibroblasts were obtained by culturing cells obtained from abdominoplasty performed on a person. The fibroblasts were isolated by enzymatic digestion using Dispase and collagenase and were then cultured in DMEM (Dulbecco's Modified Eagle's Medium) and Ham's F12 medium in (1:1) ratio containing 10% of fetal calf serum, antibiotics and amphotericin B.
The reference activator used is transforming growth factor β (TGF-β) at a concentration of 10 ng/ml.
The fibroblasts were incubated for 24 hours at 37° C., under a humid atmosphere and 5% CO2, in the absence (culture medium only) or in the presence of the reference product, or of increasing concentrations of test products (10, 100 and 1000 μg/ml) for both products. The test products were dissolved directly in the culture medium.
At the end of the incubation period, the hyaluronic acid contained in the culture media was quantified using a sensitive and specific ELISA kit.
At the end of the incubation period, the proteins contained in the cellular lysates were quantified by Bradford's spectrocolorimetric method.
The results are given in the form of ng of hyaluronic acid per μg of total proteins of the cell lawn (mean±standard deviation, SD). The statistical significance of the differences observed between the “Control” and “Reference Product” conditions was evaluated by a Student test (Student t-test). The statistical significance of the differences observed between the “Control” and “Test Products” conditions was evaluated product by product, by a one-way analysis of variance (One Way ANOVA or One Way Anova on Ranks+), followed, when necessary, by a Holm-Sidak or Dunn's test (*: p<0.05).

Molecule | production of elastin, % control ([1]; 10 μg/ml) [% control] | production of elastin, mean value ([1]; 10 μg/ml) | production of elastin, % control ([1]; 100 μg/ml) [% control] | production of elastin, mean value ([1]; 100 μg/ml) | increase in the neosynthesis of elastin ([1]; 100 μg/ml) [%] | production of elastin, % control ([1]; 1000 μg/ml) [% control] | production of elastin, mean value ([1]; 1000 μg/ml) | increase in the neosynthesis of elastin ([1]; 1000 μg/ml) [%] | production of hyaluronic acid, % control ([2]; 10 μg/ml) [% control] | production of hyaluronic acid, mean value ([2]; 10 μg/ml) | production of hyaluronic acid, % control ([2]; 100 μg/ml) [% control] | production of hyaluronic acid, mean value ([2]; 100 μg/ml) | increase in the neosynthesis of hyaluronic acid ([2]; 100 μg/ml, versus control) [%] | production of hyaluronic acid, % control ([2]; 1000 μg/ml) [% control] | production of hyaluronic acid, mean value ([2]; 1000 μg/ml) | increase in the neosynthesis of hyaluronic acid ([2]; 1000 μg/ml, versus control) [%] | other results
O=C(O)C(=O)C(O)C(O)C(O)CO (stereo not shown) [2KO, calcium salt of 2-keto-(D)-gluconic acid] | 139.7 | 12.6* ng of elastin per μg of total proteins | 144.6 | 13.1* ng of elastin per μg of total proteins | 44.6 | 135.8 | 12.3* ng of elastin per μg of total proteins | 35.8 | 101.2 | 18.5 ng of hyaluronic acid per μg of total proteins | 136.3 | 25.0* ng of hyaluronic acid per μg of total proteins | 36.3 | 192.7 | 35.3* ng of hyaluronic acid per μg of total proteins | 92.7 | increase in the neosynthesis of elastin ([1]; 10 μg/ml): 39.7%
O=C([O-])C(O)C(O)C(O)C(=O)CO.[K+] (stereo not shown) [5KO, potassium salt of 5-keto-(D)-gluconic acid] | 104.8 | 9.5 ng of elastin per μg of total proteins | 118.9 | 10.7 ng of elastin per μg of total proteins | 18.9 | 184.4 | 16.7* ng of elastin per μg of total proteins | 84.4 | 123.3 | 22.6* ng of hyaluronic acid per μg of total proteins | 144.9 | 26.6* ng of hyaluronic acid per μg of total proteins | 44.9 | 144.0 | 26.4* ng of hyaluronic acid per μg of total proteins | 44.0 | increase in the neosynthesis of hyaluronic acid ([2]; 10 μg/ml, versus control): 23.3%
O=C1O[C@H]([C@@H](O)CO)C(O)=C1O [Ascorbic acid, ascorbic acid, reference compound] | – | – | 140.3 | 12.7*** ng of elastin per μg of total proteins | 40.3 | – | – | – | – | – | – | – | – | – | – | – | –
TGF-β: reference activator, transforming growth factor β (TGF-β), used at 10 ng/ml [reference compound] | – | – | – | – | – | – | – | – | – | – | – | – | – | – | – | – | production of hyaluronic acid, % control ([2]; 10 ng/ml): 226.3 % control; production of hyaluronic acid, mean value ([2]; 10 ng/ml): 41.5*** ng of hyaluronic acid per μg of total proteins; increase in fibroblast production of hyaluronic acid ([2]; 10 ng/ml, versus control): 126.3%
